From PubChem BioAssay (NCI) come the findings set out here.

“And” between values parts separate entries of the source, which are not always exact repeats. Identical values can stand only once.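 Cells were grown in 96-well plates and exposed to each compound for 48 hours at five concentrations; endpoints were interpolated linearly between bracketing concentrations, or set to the highest concentration if not reached. At the GI50, growth is halved. The concentration for full growth arrest is given as TGI.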

What all share (test): growth of human tumour cells (NCI), 48 h
The subject of experiment [1] is PC-3 prostate.
Experiment [2] has as its system HCT-15 colon.
In experiment [3] the test system is SNB-19 CNS.
In experiment [4] the test system is LXFL 529 NSCLC.
In experiment [5] the test system is DMS 114 small cell lung.
For experiment [6], the system named is SK-MEL-5 melanoma.
Experiment [7] has as its system SF-539 CNS.
Experiment [8] has as its system OVCAR-8 ovarian.
The subject of experiment [9] is A549 NSCLC.
Experiment [10] relates to BT-549 breast.

Turning to `CCC(C)SC1SCC2C(=O)N(C)C3(CC3C)C(=O)OCC(NC(=O)c3nc4ccccc4cc3O)C(=O)NC(C)C(=O)N(C)C1C(=O)N(C)C1(CC1C)C(=O)OCC(NC(=O)c1nc3ccccc3cc1O)C(=O)NC(C)C(=O)N2C` (stereo unspecified), the TGI in experiment [1] was 4.9 nM; in experiment [2], 53.8 nM; in [3], 29.6 nM; in experiment [4], 791 nM; in experiment [5] it was 0.279 nM; in experiment [6] it was 0.112 nM and < 14.2 nM. Also, the TGI in experiment [7] was found to be 0.317 nM; in experiment [8], 13.3 nM; in experiment [9] it was 1910 nM; in experiment [10] it was 0.693 nM. In experiment [6], the GI50 is 0.0291 nM.
`O=C1c2ccccc2C(=O)c2c(/C=C\N3CCCCC3)ccnc21`: the TGI in [1] came to 28000 nM; in experiment [2], 6410 nM; in [3] it was 17100 nM; in experiment [4], 15000 nM; in experiment [5] it was 4200 nM; in [6], 1100 nM. Moreover, the TGI in [7] is 9650 nM; in experiment [8] it was 17500 nM; in experiment [9] it was 5840 nM; in experiment [10], 2220 nM.
